The conditions of series [1]: cited from earlier work; for Löslichkeit in Fetten: Kummerow, J.Am Oil Chem. Soc. 33 1956, 116.
The conditions of series [2]: direct use in ointments, creams and other skin preparations; no test described; cited from earlier work.
Series [3] is described as follows: Solubility of pyridoxine tripropionate in vegetable oil / lipophilic phases.
Description: 50 Gew% Pyridoxintripropionat werden vorgelegt und in 50 Gew% Pflanzenöl unter starkem Rühren gelöst.

Where only a bound is given, the exact number is not on record here.

On to `CC(=O)OCc1cnc(C)c(OC(C)=O)c1COC(C)=O` [Pyridoxintriacetat], for which the “Löslichkeit in Fetten” value in series [1] (Sakuragi) is “beinahe unlöslich”.

As for `Cc1ncc(CO)c(CO)c1O.Cl` [Pyridoxin-hydrochlorid], the “Löslichkeit in unpolaren Flüssigkeiten” value in series [1] (in unpolaren Flüssigkeiten, background statement) is given as “praktisch unlöslich”.

Turning to `CCCCCCCCCCCCCCCC(=O)OCc1cnc(C)c(OC(=O)CCCCCCCCCCCCCCC)c1COC(=O)CCCCCCCCCCCCCCC` [Pyridoxintripalmitat], the “Löslichkeit in Olivenöl” value in series [1] (bei 3 °C in Olivenöl, Sakuragi, Kummerow 1956) is 0,1%.

Take Pyridoxinoctanoat: the “Löslichkeit in Pflanzenölen” value in series [1] (in Pflanzenölen, Sakuragi, Kummerow 1956) was no more than 1%.

`CCC(=O)OCc1cnc(C)c(OC(=O)CC)c1COC(=O)CC` [Pyridoxintripropionat]: the “Löslichkeit in Fetten” value in series [1] (Sakuragi) was “beinahe unlöslich”. Also, in series [2], the “Vitamin B₆ Wirksamkeit” value was “volle”. Further, the “Lösung in Pflanzenöl” value in series [3] (50 Gew% Pyridoxintripropionat in 50 Gew% Pflanzenöl, dissolved with vigorous stirring) is recorded as “homogene Lösung”. In series [3] (in Pflanzenöl), the “löslich in Pflanzenöl” value was no more than 50 Gew.%.

(Values after EP0678293A2, “Composition containing pyridoxine ester, process for the preparation and use thereof” (F. HOFFMANN-LA ROCHE AG, priority 1994, dated 1995).)
